Reference: paper PMC2574845 (Drug metabolism and disposition: the biological fate of …, 2008)

Legend:
[1] = molecular target: recombinant human NQO1 (rhNQO1) (Homo sapiens, UniProt P15559); assay: Relative stability of hydroquinone ansamycins; type: physicochemical; settings: for relative stability of BAH2 (nmol oxygen consumption per nmol NADH oxidized), rank order: 50 mM potassium phosphate buffer, pH 7.4, 35 °C, BAH2 generated by rhNQO1 and NADH, > indicates p<0.05
rhNQO1 = rhNQO1 (Homo sapiens, UniProt P15559); assay: Prevention of GM and 17DMAG glutathione conjugate formation by rhNQO1; type: biochemical; settings: for prevention of conjugation with glutathione by NQO1 reduction: 50 μM BA, 5 mM GSH, 11.8 μg rhNQO1, 500 μM NADH, pH 7.4, room temperature
[2] = 5 min, 50 μM, pH 7.4
[3] = in water; ref Lang et al., 2007; cited from earlier work
[4] = BA-glutathione conjugate formation; settings: 50 μM BA; for relative rate of glutathione conjugate formation, rank order / fraction of BA conjugated with glutathione: 5 mM glutathione, pH 7.4, room temperature; for fraction of BA conjugated with glutathione: data not shown
[5] = Quinone/hydroquinone cycling in microsomal incubations; settings: microsomal incubation with NAD(P)H; data not shown
Metabolism [6] = settings: mouse liver microsomes, 50 μM BA, pH 7.4, 35 °C; for relative oxygen consumption rates, NADH-dependent metabolism, rank order: > indicates p<0.05; for oxygen consumption rates, NADPH-dependent metabolism, comparison: p<0.05
Metabolism [7] = settings: human liver microsomes, 50 μM BA, pH 7.4, 35 °C, > indicates p<0.05
[8] = molecular target: T1, human NADPH-cytochrome P450 reductase (Homo sapiens, UniProt P16435); settings: GM, NADH and NADPH-cytochrome P450 reductase, no NADPH
T1 sequence (P16435 1-677): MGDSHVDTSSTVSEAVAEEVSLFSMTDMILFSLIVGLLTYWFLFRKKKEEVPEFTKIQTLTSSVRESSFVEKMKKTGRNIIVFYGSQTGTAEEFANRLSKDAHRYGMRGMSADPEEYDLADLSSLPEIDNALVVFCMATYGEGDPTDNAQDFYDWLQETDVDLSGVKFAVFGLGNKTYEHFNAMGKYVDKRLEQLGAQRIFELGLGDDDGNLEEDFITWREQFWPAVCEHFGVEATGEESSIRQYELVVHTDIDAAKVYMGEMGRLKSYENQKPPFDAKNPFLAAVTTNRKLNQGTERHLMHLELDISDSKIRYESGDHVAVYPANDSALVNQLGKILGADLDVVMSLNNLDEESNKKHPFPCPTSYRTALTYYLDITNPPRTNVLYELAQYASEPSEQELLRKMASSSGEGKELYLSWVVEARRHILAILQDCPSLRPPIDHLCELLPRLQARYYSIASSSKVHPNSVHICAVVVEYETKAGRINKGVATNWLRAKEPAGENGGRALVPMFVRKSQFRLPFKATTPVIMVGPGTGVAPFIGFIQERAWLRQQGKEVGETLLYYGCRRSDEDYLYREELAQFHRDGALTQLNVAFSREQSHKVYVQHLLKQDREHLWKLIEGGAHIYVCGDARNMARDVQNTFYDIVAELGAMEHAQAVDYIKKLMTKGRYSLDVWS

recombinant human NQO1 (rhNQO1), sequence (P15559 whole entry): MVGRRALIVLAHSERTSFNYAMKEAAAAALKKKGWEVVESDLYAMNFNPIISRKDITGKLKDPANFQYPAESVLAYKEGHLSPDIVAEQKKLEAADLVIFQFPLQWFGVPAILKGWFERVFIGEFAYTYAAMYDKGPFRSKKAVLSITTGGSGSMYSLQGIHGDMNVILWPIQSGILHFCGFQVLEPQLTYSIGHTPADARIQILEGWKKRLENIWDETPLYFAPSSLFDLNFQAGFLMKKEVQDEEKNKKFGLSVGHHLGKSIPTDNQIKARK
rhNQO1, sequence (P15559 whole entry): as above

relative stability of BAH2 (nmol oxygen consumption per nmol NADH oxidized), rank order [1] | compound in the quinone form on HPLC [5] | oxygen consumption rates, NADPH-dependent metabolism, comparison (Metabolism [6]) | SMILES | relative rate of glutathione conjugate formation, rank order [4] | relative oxygen consumption rates, NADH-dependent metabolism, rank order (Metabolism [6]) | relative oxygen consumption rates, NADH-dependent metabolism, rank order (Metabolism [7]) | relative oxygen consumption rates, NADPH-dependent metabolism, rank order (Metabolism [7]) | further results
GMH2>17AAGH2>17DMAGH2>17AGH2, 17AEP-GAH2 |  |  | CO[C@H]1/C=C\C=C(/C)C(=O)Nc2cc(O)c(NCCN(C)C)c(c2O)C[C@@H](C)C[C@H](OC)[C@H](O)[C@@H](C)/C=C(\C)[C@@H]1OC(N)=O [17DMAGH2, 17-demthoxy-17-[[2-(dimethylamino)ethyl]amino]-geldanamycin hydroquinone] |  |  |  |  | 
 | about 70% | significantly greater than 17AAG | COC1=C2C[C@@H](C)C[C@H](OC)[C@H](O)[C@@H](C)/C=C(\C)[C@H](OC(N)=O)[C@@H](OC)/C=C\C=C(/C)C(=O)NC(=CC1=O)C2=O [GM, geldanamycin] | GM>17DMAG>17AEP-GA>17AAG, 17AG | GM>17DMAG>17AG, 17AEP-GA, 17AAG | GM>17DMAG, 17AG, 17AEP-GA>17AAG | GM, 17DMAG, 17AEP-GA>17AG>17AAG | prevention of conjugation with glutathione by NQO1 reduction (rhNQO1): > 95%; glutathione conjugate (GMH2-SG) formed [2]: approximately 45 μM; one-electron redox potential [3]: −0.243 V; oxygen consumption with NADH as cofactor [8]: no oxygen consumption was observed
GMH2>17AAGH2>17DMAGH2>17AGH2, 17AEP-GAH2 |  |  | COC1C=CC=C(C)C(=O)Nc2cc(O)c(NCCN3CCCC3)c(c2O)CC(C)CC(OC)C(O)C(C)C=C(C)C1OC(N)=O (stereo not shown) [17AEP-GAH2, 17-demethoxy-17-[[2-(pyrrolidin-1-yl)ethyl]amino]-geldanamycin hydroquinone] |  |  |  |  | half-life of auto-oxidation of BAH2 back to quinone (in words) ([1]; auto-oxidation over time): a few minutes
 |  |  | COC1=CC(=O)c2c(c(COc3ccc([N+](=O)[O-])cc3)c(C)n2C)C1=O [ES936, 5-methoxy-1,2-dimethyl-3-[(4-nitrophenoxy)methyl]indole-4,7-dione] |  |  |  |  | effect on NQO1-mediated prevention of BA glutathione conjugation (rhNQO1; pretreatment with 2 μM ES936, GM or 17DMAG with NADH, rhNQO1 and glutathione): abrogated
 | > 95% | significantly greater than 17AAG | CO[C@H]1/C=C\C=C(/C)C(=O)NC2=CC(=O)C(N)=C(C[C@@H](C)C[C@H](OC)[C@H](O)[C@@H](C)/C=C(\C)[C@@H]1OC(N)=O)C2=O [17AG, 17-(amino)-17-demethoxygeldanamycin] | GM>17DMAG>17AEP-GA>17AAG, 17AG | GM>17DMAG>17AG, 17AEP-GA, 17AAG | GM>17DMAG, 17AG, 17AEP-GA>17AAG | GM, 17DMAG, 17AEP-GA>17AG>17AAG | fraction of BA conjugated with glutathione ([4]; after 24 hours): less than 15%
 | > 95% | significantly slower compared to GM | C=CCNC1=C2C[C@@H](C)C[C@H](OC)[C@H](O)[C@@H](C)/C=C(\C)[C@H](OC(N)=O)[C@@H](OC)/C=C\C=C(/C)C(=O)NC(=CC1=O)C2=O [17AAG, 17-(allylamino)-17-demethoxygeldanamycin] |  |  |  |  | one-electron redox potential [3]: −0.390 V; fraction of BA conjugated with glutathione ([4]; after 24 hours): less than 15%
GMH2>17AAGH2>17DMAGH2>17AGH2, 17AEP-GAH2 |  |  | C=CCNc1c(O)cc2c(O)c1C[C@@H](C)C[C@H](OC)[C@H](O)[C@@H](C)/C=C(\C)[C@H](OC(N)=O)[C@@H](OC)/C=C\C=C(/C)C(=O)N2 [17AAGH2, 17-(allylamino)-17-demethoxygeldanamycin hydroquinone] |  |  |  |  | 

SMILES | relative stability of BAH2 (nmol oxygen consumption per nmol NADH oxidized), rank order [1] | compound in the quinone form on HPLC [5] | oxygen consumption rates, NADPH-dependent metabolism, comparison (Metabolism [6]) | relative rate of glutathione conjugate formation, rank order [4] | relative oxygen consumption rates, NADH-dependent metabolism, rank order (Metabolism [6]) | relative oxygen consumption rates, NADH-dependent metabolism, rank order (Metabolism [7]) | relative oxygen consumption rates, NADPH-dependent metabolism, rank order (Metabolism [7]) | further results
COC1C=CC=C(C)C(=O)Nc2cc(O)c(N)c(c2O)CC(C)CC(OC)C(O)C(C)C=C(C)C1OC(N)=O (stereo not shown) [17AGH2, 17-(amino)-17-demethoxygeldanamycin hydroquinone] | GMH2>17AAGH2>17DMAGH2>17AGH2, 17AEP-GAH2 |  |  |  |  |  |  | 
CO[C@H]1/C=C\C=C(/C)C(=O)NC2=CC(=O)C(NCCN3CCCC3)=C(C[C@@H](C)C[C@H](OC)[C@H](O)[C@@H](C)/C=C(\C)[C@@H]1OC(N)=O)C2=O [17AEP-GA, 17-demethoxy-17-[[2-(pyrrolidin-1-yl)ethyl]amino]-geldanamycin] |  |  | significantly greater than 17AAG | GM>17DMAG>17AEP-GA>17AAG, 17AG | GM>17DMAG>17AG, 17AEP-GA, 17AAG | GM>17DMAG, 17AG, 17AEP-GA>17AAG | GM, 17DMAG, 17AEP-GA>17AG>17AAG | fraction of BA conjugated with glutathione ([4]; within 10 hours): about 90%
COc1c(O)cc2c(O)c1C[C@@H](C)C[C@H](OC)[C@H](O)[C@@H](C)/C=C(\C)[C@H](OC(N)=O)[C@@H](OC)/C=C\C=C(/C)C(=O)N2 [GMH2, geldanamycin hydroquinone] | GMH2>17AAGH2>17DMAGH2>17AGH2, 17AEP-GAH2 |  |  |  |  |  |  | half-life of auto-oxidation of BAH2 back to quinone ([1]; auto-oxidation over time): about 20 hours
CO[C@H]1/C=C\C=C(/C)C(=O)NC2=CC(=O)C(NCCN(C)C)=C(C[C@@H](C)C[C@H](OC)[C@H](O)[C@@H](C)/C=C(\C)[C@@H]1OC(N)=O)C2=O [17DMAG, 17-demethoxy-17-[[2-(dimethylamino)ethyl]amino]-geldanamycin] |  | > 95% | significantly greater than 17AAG | GM>17DMAG>17AEP-GA>17AAG, 17AG | GM>17DMAG>17AG, 17AEP-GA, 17AAG | GM>17DMAG, 17AG, 17AEP-GA>17AAG | GM, 17DMAG, 17AEP-GA>17AG>17AAG | prevention of conjugation with glutathione by NQO1 reduction (rhNQO1): > 95%; glutathione conjugate (17DMAG-SG) formed ([4]; 5 mM reduced glutathione, phosphate buffer pH 7.4, room temperature, within 4 hours): approximately 47 μM
